# Laboratory results taken from article PMC9241669, “Allantodapsone is a Pan-Inhibitor of Staphylococcus aureus Adhesion to Fibrinogen, Loricrin, and Cytokeratin 10” (Microbiology Spectrum, 2022).
# Values joined by “and” are separate entries in the source; they are usually repeats but may differ in a detail not shown here. Equal values may be shown once.
# Columns and labels:
# S. aureus Newman [1] = experiment: Adhesion of S. aureus Newman to immobilized fibrinogen (crystal violet); format: cell-based, Staphylococcus aureus
# Description: FIG 1 Allantodapsone inhibits S. aureus Newman adhesion to fibrinogen. Dose response curves for S. aureus Newman (A), L. lactis ClfA (B), and L. lactis ClfB (C) adhesion to fibrinogen. Fibrinogen was used to coat plates at 4°C overnight at 10 μg/mL. Wells were washed with PBS and blocked with 1% BSA. Washed bacteria (OD600 of 1) were mixed with the relevant concentration of allantodapsone or vehicle control (DMSO) for 5 min, and added to the wells, incubating for 2 h at 37°C. Adherent cells were washed, fixed, and stained with crystal violet, and wells further washed. The dye was dissolved in acetic acid and the absorbance measured at 570 nm. IC50 values were generated using GraphPad Prism 9.0 GraphPad software, San Diego, CA. Data are representative of three experiments with error presented as SEM.
# FIG 2 Allantodapsone inhibits S. aureus adhesion to fibrinogen. (A) S. aureus Newman stationary phase and (B) exponential phase. (C) S. aureus SH1000 stationary phase and (D) exponential phase bacteria. Fibrinogen was used to coat plates at 4°C overnight at 10 μg/mL. Wells were washed with PBS and blocked with 1% BSA. Washed bacteria (OD600 of 1) were mixed with the relevant concentration of allantodapsone or vehicle control for 5 min, and added to the wells, incubating for 2 h at 37°C. Adherent cells were washed, fixed, and stained with crystal violet, and wells further washed. The dye was dissolved in acetic acid and the absorbance measured at 570 nm. Compounds were screened at a concentration of 70 μM and compared to their vehicle control. Statistical analysis was carried out using repeated measures ANOVA followed by multiple comparisons Dunnett’s tests using GraphPad PRISM. **, P ≤ 0.01; ***, P ≤ 0.001; ****, P ≤ 0.0001 (n = 3).
# (§1) Adhesion assays were carried out according to Hartford et al. ([37]). Briefly, plates were coated with 10 μg/mL fibrinogen (Calbiochem, Darmstadt, Germany) or 20 μg/mL fibronectin (Sigma-Aldrich, Ireland) for 2 h at 37°C or for 16 h at 4°C. Plates were blocked with 1% BSA at 37°C for 1 h and washed 3 times in PBS. Washed bacteria were incubated at 37°C for 2 h. Adherent bacteria were washed three times in PBS and fixed in 5–9% formaldehyde at room temperature for 30 min. Wells were washed three times in PBS and stained using 5% crystal violet for 20 min. Wells were washed three times in PBS, and the crystal violet solubilized using 5% acetic acid. Plates were read at 570 nm on a Wallac Victor2, (Shelton, CT, USA). The minimum adhesion inhibitory concentration (MAIC) was determined as the concentration inhibiting greater than 90% bacterial adhesion.
# Compounds were added to the bacterial suspension prior to addition to the wells. In each experiment, vehicle controls were prepared using the same volume of vehicle for the matching test compound.
# S. aureus Newman [2] = experiment: Antimicrobial assay (bacterial growth in BHI broth); format: cell-based, Staphylococcus aureus; conditions: overnight in BHI broth, allantodapsone up to 100 μM, versus vehicle control
# Description: S. aureus was grown in BHI broth shaking overnight at 37°C in the presence of a range of concentrations of allantodapsone, dapsone, or ampicillin as control. Absorbance was measured the following day at 570 nm. Data have been normalized to the relevant vehicle control (1% DMSO for allantodapsone and dapsone and water for ampicillin). […] Error bars represent SEM.
# S. aureus was grown overnight in BHI broth at 37°C in shaking incubator. Wells were inoculated with 10 μL of overnight culture into 90 μL of broth containing the test compounds or controls. A growth control containing no agents was used (positive control), a sterility control of broth alone was included, and vehicle controls were included for each test compound. Plates were incubated overnight at 37°C and absorbance measured at 570 nm the following day using a Wallac Victor2, (Shelton, CT, USA).
# S. aureus Newman [3] = experiment: Adhesion of S. aureus Newman to GST-L2v loricrin; format: cell-based, Staphylococcus aureus; conditions: for concentration giving full inhibition of adhesion to L2v loricrin: S. aureus Newman, GST-L2v
# Description: (§2) FIG 4 Allantodapsone inhibits S. aureus adhesion to loricrin and cytokeratin 10. Dose-response curve for adhesion of S. aureus Newman to GST-L2v loricrin (A) and CK10 (C). (B) Inhibition of recombinant ClfB N2N3 binding to immobilized GST-L2v loricrin by allantodapsone. (D) Inhibition of S. aureus Newman adhesion to GST-L2v loricrin by allantodapsone derivatives. Purified GST-L2v or CK10 were used to coat plates at 4°C overnight. Wells were washed with PBS and blocked with 1% BSA. Washed bacteria (OD600 of 1) were mixed with allantodapsone or vehicle control before being added to the wells and incubated for 2 h at 37°C. Adherent cells were washed, fixed, and stained with crystal violet, and wells further washed. The dye was dissolved in acetic acid, and the absorbance measured at 570 nm. GST-L2v was used at 20 μM in A and D. CK10 was used at 10 nM. Test compounds were incubated with bacteria at 80 μM and normalized to the DMSO vehicle control in D. For data presented in B, recombinant ClfB was incubated with allantodapsone (100 μM) or DMSO (1%) for 30 min prior to being added to wells coated with recombinant GST-L2v loricrin. Bound ClfB was detected using peroxidase-conjugated anti-His monoclonal antibody in an ELISA. The graphs shown are representative of three independent experiments. Statistics were carried out using one-way ANOVA followed by the Dunnett’s posttest using GraphPad Prism version 9.0.
# as §1
# recombinant ClfB N2N3 = recombinant ClfB N2N3 (Staphylococcus aureus, UniProt O86476); experiment: ELISA of recombinant ClfB N2N3 binding to immobilized GST-L2v loricrin; parameters: species or system S. aureus; conditions: allantodapsone 100 μM; ClfB 5 μM; P < 0.0001
# recombinant ClfB N2N3, sequence (O86476 201-542): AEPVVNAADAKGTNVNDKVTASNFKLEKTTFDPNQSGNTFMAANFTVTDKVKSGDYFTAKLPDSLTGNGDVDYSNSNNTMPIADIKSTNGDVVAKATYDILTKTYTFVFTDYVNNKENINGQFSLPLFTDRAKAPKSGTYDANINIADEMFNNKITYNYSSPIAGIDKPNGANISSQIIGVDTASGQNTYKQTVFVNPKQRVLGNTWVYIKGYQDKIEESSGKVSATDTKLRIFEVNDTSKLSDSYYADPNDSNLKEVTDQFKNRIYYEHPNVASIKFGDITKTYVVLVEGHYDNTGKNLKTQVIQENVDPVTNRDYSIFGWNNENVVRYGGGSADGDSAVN
# Description: as §2, with “Test compounds were incubated with bacteria at 80 μM and normalized to the DMSO vehicle control in D. For data presented in B, recombinant ClfB was incubated with allantodapsone (100 μM) or DMSO (1%) for 30 min prior to being added to wells coated with recombinant GST-L2v loricrin.” left out, “The graphs shown are representative of three independent experiments. Statistics were carried out using one-way ANOVA followed by the Dunnett’s posttest using GraphPad Prism version 9.0.” left out
# Recombinant GST-tagged L2v loricrin (120 nM) was coated onto a microtiter plate (Nunc Maxisorb) in sodium carbonate buffer (15 mM Na2CO3, 35 mM NaHCO3, pH 9.6) for 16 h at 4°C. […] Bound ClfB was detected with peroxidase-conjugated anti-His monoclonal antibody in 1% (wt/vol) skimmed milk proteins in PBS. […] The reaction was stopped by the addition of 2 M H2S0_4 (50 μL/well), and the A450 was measured in a plate reader (Labsystems).
structure (smiles),measurement,setting,value
Nc1ccc(S(=O)(=O)c2ccc(NCN3C(=O)NC(=O)C(=O)C3=O)cc2)cc1 [Allantodapsone],minimum adhesion inhibitory concentration (MAIC),"S. aureus Newman [1]; S. aureus Newman stationary phase, concentration inhibiting greater than 90% adhesion to fibrinogen",100 μM and 40.2 μg/mL
same,inhibition of adhesion to fibrinogen,"S. aureus Newman [1]; S. aureus Newman, stationary and exponential phase, compounds screened at 70 μM (Fig. 2)",inhibited
same,IC50,"S. aureus Newman [1]; Staphylococcus aureus, NEWMAN, read-out: IC50, inhibition of adhesion to fibrinogen, S. aureus Newman exponential phase",32.8 µM
same,IC50,"S. aureus Newman [1]; Staphylococcus aureus, NEWMAN, read-out: IC50, inhibition of adhesion to fibrinogen, S. aureus Newman stationary phase, fibrinogen 10 μg/mL",23 µM
same,IC50,"S. aureus Newman [1]; read-out: IC50, inhibition of adhesion to fibrinogen, S. aureus Newman stationary phase, fibrinogen 10 μg/mL",21.3 µM
same,inhibition of bacterial growth (words),S. aureus Newman [2],does not inhibit bacterial growth
same,inhibition of bacterial growth (words),S. aureus Newman [2]; listed as allantodapsone,no inhibition of bacterial growth
same,concentration giving full inhibition of adhesion to L2v loricrin,S. aureus Newman [3],40 µM
same,concentration giving full inhibition of adhesion to L2v loricrin,S. aureus Newman [3]; listed as allantodapsone,16.1 µg/mL
same,IC50,"S. aureus Newman [3]; Staphylococcus aureus, NEWMAN, read-out: IC50, inhibition of adhesion to L2v loricrin",9.87 µM
same,inhibition of recombinant ClfB binding to L2v loricrin,recombinant ClfB N2N3,inhibited
